Assay results reported in ChEMBL document CHEMBL4804284.
Calls of active or inactive are those of the source. The calls are words filed in the database; no cut-off is given here.

Experiments:
[1] = tested on: Tyrosine-protein kinase ABL1 (Homo sapiens), P00519 [Q252H]; assay: Inhibition of DNA-tagged phosphorylated human ABL1 Q252H mutant assessed as percent of control at 50000 nM by qPCR analysis relative to control; parameters: scale not given: the % may be the effect or the level left
[2] = molecular target: Phosphatidylinositol 4-phosphate 5-kinase type-1 alpha (Homo sapiens) (UniProt Q99755); assay: Inhibition of DNA-tagged human PIP5K1A assessed as percent of control at 50000 nM by qPCR analysis relative to control; parameters: scale not given: the % may be the effect or the level left
OCI-AML-3 = assay: Cytotoxicity against human OCI-AML-3 cells at 0.1-100 uM assessed as decrease in cell viability relative to control; assay type: functional, cell-based
[3] = molecular target: Serine/threonine-protein kinase 4 (Homo sapiens) (UniProt Q13043); assay: Inhibition of DNA-tagged human MST1 assessed as percent of control at 50000 nM by qPCR analysis relative to control; parameters: scale not given: the % may be the effect or the level left
[4] = molecular target: Non-receptor tyrosine-protein kinase TNK1 (Homo sapiens) (UniProt Q13470); assay: Inhibition of DNA-tagged human TNK1 assessed as percent of control at 50000 nM by qPCR analysis relative to control; parameters: scale not given: the % may be the effect or the level left
[5] = molecular target: Mitogen-activated protein kinase kinase kinase 3 (Homo sapiens) (UniProt Q99759); assay: Inhibition of DNA-tagged human MAP3K3 assessed as percent of control at 50000 nM by qPCR analysis relative to control; parameters: scale not given: the % may be the effect or the level left
Mitogen-activated protein kinase kinase kinase 3 (Homo sapiens), sequence (Q99759 whole entry): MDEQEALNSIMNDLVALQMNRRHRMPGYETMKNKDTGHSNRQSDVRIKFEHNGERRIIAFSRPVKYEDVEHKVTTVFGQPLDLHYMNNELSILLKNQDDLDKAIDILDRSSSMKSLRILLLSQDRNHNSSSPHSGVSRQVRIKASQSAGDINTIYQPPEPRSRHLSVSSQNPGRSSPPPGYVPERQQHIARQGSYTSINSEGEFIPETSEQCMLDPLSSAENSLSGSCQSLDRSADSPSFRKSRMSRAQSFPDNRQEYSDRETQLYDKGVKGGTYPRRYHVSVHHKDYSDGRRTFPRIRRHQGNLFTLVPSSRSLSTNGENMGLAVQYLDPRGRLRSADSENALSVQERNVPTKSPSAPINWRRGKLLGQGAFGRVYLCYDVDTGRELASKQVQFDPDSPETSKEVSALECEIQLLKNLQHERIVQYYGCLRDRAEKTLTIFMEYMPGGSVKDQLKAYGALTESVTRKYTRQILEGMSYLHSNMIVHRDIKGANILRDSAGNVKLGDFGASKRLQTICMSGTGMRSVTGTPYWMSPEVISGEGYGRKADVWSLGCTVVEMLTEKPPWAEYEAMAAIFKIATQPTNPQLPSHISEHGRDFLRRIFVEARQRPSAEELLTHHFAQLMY

[6] = molecular target: Ephrin type-A receptor 8 (Homo sapiens) (UniProt P29322); assay: Inhibition of DNA-tagged human EPHA8 assessed as percent of control at 50000 nM by qPCR analysis relative to control; parameters: scale not given: the % may be the effect or the level left
Ephrin type-A receptor 8 (Homo sapiens), sequence (P29322 whole entry): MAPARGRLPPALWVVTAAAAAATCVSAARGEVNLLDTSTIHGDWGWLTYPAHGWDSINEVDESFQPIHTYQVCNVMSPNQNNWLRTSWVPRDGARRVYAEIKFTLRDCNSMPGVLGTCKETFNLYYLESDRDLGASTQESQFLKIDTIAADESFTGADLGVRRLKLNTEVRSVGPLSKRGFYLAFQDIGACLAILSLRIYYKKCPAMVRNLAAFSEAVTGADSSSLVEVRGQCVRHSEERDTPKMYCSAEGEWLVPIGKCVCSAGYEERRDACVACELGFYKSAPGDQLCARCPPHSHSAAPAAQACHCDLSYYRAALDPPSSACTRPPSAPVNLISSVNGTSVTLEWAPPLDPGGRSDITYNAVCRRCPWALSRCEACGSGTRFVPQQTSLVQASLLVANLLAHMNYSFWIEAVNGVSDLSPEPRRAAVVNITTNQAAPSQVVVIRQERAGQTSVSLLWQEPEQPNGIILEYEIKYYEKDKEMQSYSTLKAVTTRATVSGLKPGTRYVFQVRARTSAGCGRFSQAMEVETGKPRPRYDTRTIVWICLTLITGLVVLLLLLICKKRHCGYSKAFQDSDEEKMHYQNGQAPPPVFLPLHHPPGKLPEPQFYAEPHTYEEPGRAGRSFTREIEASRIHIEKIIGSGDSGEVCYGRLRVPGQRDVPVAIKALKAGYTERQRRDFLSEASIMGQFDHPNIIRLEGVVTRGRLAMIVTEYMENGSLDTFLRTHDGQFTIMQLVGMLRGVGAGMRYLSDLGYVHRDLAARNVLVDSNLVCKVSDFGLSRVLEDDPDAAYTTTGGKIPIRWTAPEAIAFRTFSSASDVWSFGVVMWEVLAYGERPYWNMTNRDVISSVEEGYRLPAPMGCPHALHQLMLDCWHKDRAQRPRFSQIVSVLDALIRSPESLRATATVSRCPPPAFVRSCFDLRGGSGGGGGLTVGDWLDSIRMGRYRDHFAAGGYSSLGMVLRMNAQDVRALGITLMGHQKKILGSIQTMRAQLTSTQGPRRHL

[7] = molecular target: Tyrosine-protein kinase Lyn (Homo sapiens) (UniProt P07948); assay: Inhibition of DNA-tagged human LYN assessed as percent of control at 50000 nM by qPCR analysis relative to control; parameters: scale not given: the % may be the effect or the level left
Tyrosine-protein kinase Lyn (Homo sapiens), sequence (P07948 2-512 limits assumed): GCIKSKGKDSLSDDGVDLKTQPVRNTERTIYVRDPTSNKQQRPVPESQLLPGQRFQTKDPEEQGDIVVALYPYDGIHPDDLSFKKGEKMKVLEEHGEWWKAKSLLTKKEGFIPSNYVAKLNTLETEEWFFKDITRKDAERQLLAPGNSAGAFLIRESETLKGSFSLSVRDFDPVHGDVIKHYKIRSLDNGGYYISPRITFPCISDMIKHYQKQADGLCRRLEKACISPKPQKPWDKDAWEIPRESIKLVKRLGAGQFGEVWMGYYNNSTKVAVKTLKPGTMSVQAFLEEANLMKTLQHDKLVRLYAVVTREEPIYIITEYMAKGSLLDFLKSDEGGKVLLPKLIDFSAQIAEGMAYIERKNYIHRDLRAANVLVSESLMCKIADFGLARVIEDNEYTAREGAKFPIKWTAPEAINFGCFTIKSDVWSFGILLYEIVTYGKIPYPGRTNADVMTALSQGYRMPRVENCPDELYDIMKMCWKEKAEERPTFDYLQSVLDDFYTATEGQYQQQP

[8] = molecular target: Cyclin-dependent kinase 14 (Homo sapiens) (UniProt O94921); assay: Inhibition of DNA-tagged human PFTK1 assessed as percent of control at 50000 nM by qPCR analysis relative to control; parameters: scale not given: the % may be the effect or the level left
[9] = molecular target: ALK tyrosine kinase receptor (Homo sapiens) (UniProt Q9UM73); assay: Inhibition of DNA-tagged human ALK assessed as percent of control at 50000 nM by qPCR analysis relative to control; parameters: scale not given: the % may be the effect or the level left
[10] = molecular target: Serine/threonine-protein kinase SBK1 (Homo sapiens) (UniProt Q52WX2); assay: Inhibition of DNA-tagged human SBK1 assessed as percent of control at 50000 nM by qPCR analysis relative to control; parameters: scale not given: the % may be the effect or the level left
[11] = molecular target: Dual specificity tyrosine-phosphorylation-regulated kinase 2 (Homo sapiens) (UniProt Q92630); assay: Inhibition of DNA-tagged human DYRK2 assessed as percent of control at 50000 nM by qPCR analysis relative to control; parameters: scale not given: the % may be the effect or the level left
Dual specificity tyrosine-phosphorylation-regulated kinase 2 (Homo sapiens), sequence (Q92630 whole entry): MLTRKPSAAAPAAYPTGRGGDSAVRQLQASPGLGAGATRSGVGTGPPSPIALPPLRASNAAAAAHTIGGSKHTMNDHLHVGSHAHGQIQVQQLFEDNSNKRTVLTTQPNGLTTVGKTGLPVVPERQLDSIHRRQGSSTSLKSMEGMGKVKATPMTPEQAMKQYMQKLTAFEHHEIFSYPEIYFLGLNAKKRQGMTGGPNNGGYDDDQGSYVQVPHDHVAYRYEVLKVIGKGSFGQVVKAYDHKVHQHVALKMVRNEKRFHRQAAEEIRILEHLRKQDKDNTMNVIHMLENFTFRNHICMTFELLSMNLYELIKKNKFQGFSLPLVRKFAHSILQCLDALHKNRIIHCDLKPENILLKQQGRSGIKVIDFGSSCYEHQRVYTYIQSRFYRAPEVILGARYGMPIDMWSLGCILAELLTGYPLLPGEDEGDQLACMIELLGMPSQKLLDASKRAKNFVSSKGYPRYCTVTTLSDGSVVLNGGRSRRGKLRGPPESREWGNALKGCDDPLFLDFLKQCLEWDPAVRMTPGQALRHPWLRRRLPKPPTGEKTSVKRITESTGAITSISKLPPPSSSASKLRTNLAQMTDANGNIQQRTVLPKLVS

[12] = molecular target: Mitogen-activated protein kinase 4 (Homo sapiens) (UniProt P31152); assay: Inhibition of DNA-tagged human ERK4 assessed as percent of control at 50000 nM by qPCR analysis relative to control; parameters: scale not given: the % may be the effect or the level left
Mitogen-activated protein kinase 4 (Homo sapiens), sequence (P31152 whole entry): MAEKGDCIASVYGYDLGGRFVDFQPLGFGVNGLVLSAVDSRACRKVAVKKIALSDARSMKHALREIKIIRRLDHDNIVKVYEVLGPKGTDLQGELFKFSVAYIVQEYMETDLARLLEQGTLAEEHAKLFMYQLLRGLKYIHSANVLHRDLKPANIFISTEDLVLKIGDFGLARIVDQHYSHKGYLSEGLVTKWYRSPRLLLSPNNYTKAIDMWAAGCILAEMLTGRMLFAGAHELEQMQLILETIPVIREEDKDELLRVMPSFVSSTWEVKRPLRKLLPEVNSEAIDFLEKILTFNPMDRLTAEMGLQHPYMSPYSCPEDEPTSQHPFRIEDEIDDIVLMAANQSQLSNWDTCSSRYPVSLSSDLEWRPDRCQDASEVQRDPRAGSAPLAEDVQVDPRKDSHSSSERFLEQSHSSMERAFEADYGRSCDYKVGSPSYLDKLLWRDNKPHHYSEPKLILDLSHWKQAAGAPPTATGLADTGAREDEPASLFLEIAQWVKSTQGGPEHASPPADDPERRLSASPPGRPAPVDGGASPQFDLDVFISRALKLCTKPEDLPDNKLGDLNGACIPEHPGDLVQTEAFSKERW

[13] = molecular target: Myosin-IIIa (Homo sapiens) (UniProt Q8NEV4); assay: Inhibition of DNA-tagged human MYO3A assessed as percent of control at 50000 nM by qPCR analysis relative to control; parameters: scale not given: the % may be the effect or the level left
[14] = molecular target: Tyrosine-protein kinase Srms (Homo sapiens) (UniProt Q9H3Y6); assay: Inhibition of DNA-tagged human SRMS assessed as percent of control at 50000 nM by qPCR analysis relative to control; parameters: scale not given: the % may be the effect or the level left
[15] = molecular target: Phosphorylase b kinase gamma catalytic chain, skeletal muscle/heart isoform (Homo sapiens) (UniProt Q16816); assay: Inhibition of DNA-tagged human PHKG1 assessed as percent of control at 50000 nM by qPCR analysis relative to control; parameters: scale not given: the % may be the effect or the level left
Phosphorylase b kinase gamma catalytic chain, skeletal muscle/heart isoform (Homo sapiens), sequence (Q16816 whole entry, looked up, canonical isoform): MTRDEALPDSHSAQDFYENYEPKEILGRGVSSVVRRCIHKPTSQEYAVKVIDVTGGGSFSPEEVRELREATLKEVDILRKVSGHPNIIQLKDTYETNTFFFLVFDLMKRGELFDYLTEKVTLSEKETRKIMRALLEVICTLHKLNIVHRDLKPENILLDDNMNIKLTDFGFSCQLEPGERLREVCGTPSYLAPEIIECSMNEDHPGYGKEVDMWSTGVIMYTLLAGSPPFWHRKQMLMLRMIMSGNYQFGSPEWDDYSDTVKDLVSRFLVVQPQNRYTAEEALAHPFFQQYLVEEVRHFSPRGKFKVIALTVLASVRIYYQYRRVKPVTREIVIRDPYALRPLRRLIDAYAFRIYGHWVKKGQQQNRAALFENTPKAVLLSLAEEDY

[16] = molecular target: Cyclin-dependent kinase 4/cyclin D1 (Homo sapiens) (UniProt P11802+P24385); assay: Inhibition of DNA-tagged human CDK4/cyclin D1 assessed as percent of control at 50000 nM by qPCR analysis relative to control; assay type: protein-complex assay; parameters: scale not given: the % may be the effect or the level left
[17] = molecular target: Serine/threonine-protein kinase 24 (Homo sapiens) (UniProt Q9Y6E0); assay: Inhibition of DNA-tagged human MST3 assessed as percent of control at 50000 nM by qPCR analysis relative to control; parameters: scale not given: the % may be the effect or the level left
[18] = molecular target: Tyrosine-protein kinase receptor Tie-1 (Homo sapiens) (UniProt P35590); assay: Inhibition of DNA-tagged human TIE1 assessed as percent of control at 50000 nM by qPCR analysis relative to control; parameters: scale not given: the % may be the effect or the level left
[19] = molecular target: Atypical kinase COQ8A, mitochondrial (Homo sapiens) (UniProt Q8NI60); assay: Inhibition of DNA-tagged human ADCK3 assessed as percent of control at 50000 nM by qPCR analysis relative to control; parameters: scale not given: the % may be the effect or the level left
[20] = molecular target: Ankyrin repeat and protein kinase domain-containing protein 1 (Homo sapiens) (UniProt Q8NFD2); assay: Inhibition of DNA-tagged human ANKK1 assessed as percent of control at 50000 nM by qPCR analysis relative to control; parameters: scale not given: the % may be the effect or the level left
[21] = molecular target: Aurora kinase C (Homo sapiens) (UniProt Q9UQB9); assay: Inhibition of DNA-tagged human AURKC assessed as percent of control at 50000 nM by qPCR analysis relative to control; parameters: scale not given: the % may be the effect or the level left
Aurora kinase C (Homo sapiens), sequence (Q9UQB9 whole entry): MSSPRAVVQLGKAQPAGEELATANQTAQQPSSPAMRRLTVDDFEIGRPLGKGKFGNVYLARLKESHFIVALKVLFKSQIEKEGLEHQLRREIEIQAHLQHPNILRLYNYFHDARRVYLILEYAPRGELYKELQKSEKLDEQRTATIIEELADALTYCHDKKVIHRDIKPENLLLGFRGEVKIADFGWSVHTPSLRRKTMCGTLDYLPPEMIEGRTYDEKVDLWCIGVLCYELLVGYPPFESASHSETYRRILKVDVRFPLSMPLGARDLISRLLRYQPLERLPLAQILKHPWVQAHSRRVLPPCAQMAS

[22] = molecular target: Fibroblast growth factor receptor 1 (Homo sapiens) (UniProt P11362); assay: Inhibition of DNA-tagged human FGFR1 assessed as percent of control at 50000 nM by qPCR analysis relative to control; parameters: scale not given: the % may be the effect or the level left
[23] = molecular target: AP2-associated protein kinase 1 (Homo sapiens) (UniProt Q2M2I8); assay: Inhibition of DNA-tagged human AAK1 assessed as percent of control at 50000 nM by qPCR analysis relative to control; parameters: scale not given: the % may be the effect or the level left
[24] = molecular target: LIM domain kinase 2 (Homo sapiens) (UniProt P53671); assay: Inhibition of DNA-tagged human LIMK2 assessed as percent of control at 50000 nM by qPCR analysis relative to control; parameters: scale not given: the % may be the effect or the level left
LIM domain kinase 2 (Homo sapiens), sequence (P53671 whole entry, looked up, the tested form may be a part): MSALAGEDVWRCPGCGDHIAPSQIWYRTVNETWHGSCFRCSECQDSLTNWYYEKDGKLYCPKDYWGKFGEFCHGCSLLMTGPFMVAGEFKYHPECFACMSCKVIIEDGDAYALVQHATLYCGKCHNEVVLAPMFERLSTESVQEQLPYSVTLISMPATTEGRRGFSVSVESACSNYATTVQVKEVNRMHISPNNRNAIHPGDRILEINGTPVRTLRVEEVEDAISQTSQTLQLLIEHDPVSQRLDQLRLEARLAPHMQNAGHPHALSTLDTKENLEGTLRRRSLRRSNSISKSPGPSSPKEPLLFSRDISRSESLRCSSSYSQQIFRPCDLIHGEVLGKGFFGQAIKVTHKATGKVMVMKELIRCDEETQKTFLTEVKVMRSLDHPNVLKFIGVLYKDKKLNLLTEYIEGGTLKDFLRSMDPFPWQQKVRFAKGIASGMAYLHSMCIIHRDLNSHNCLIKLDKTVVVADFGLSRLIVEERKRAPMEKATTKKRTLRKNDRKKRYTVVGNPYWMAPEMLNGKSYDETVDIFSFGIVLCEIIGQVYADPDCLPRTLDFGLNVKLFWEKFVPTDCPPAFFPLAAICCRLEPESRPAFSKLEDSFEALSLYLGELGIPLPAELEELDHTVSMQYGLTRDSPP

[25] = molecular target: Membrane-associated tyrosine- and threonine-specific cdc2-inhibitory kinase (Homo sapiens) (UniProt Q99640); assay: Inhibition of DNA-tagged human PKMYT1 assessed as percent of control at 50000 nM by qPCR analysis relative to control; parameters: scale not given: the % may be the effect or the level left
[26] = molecular target: SRSF protein kinase 2 (Homo sapiens) (UniProt P78362); assay: Inhibition of DNA-tagged human SRPK2 assessed as percent of control at 50000 nM by qPCR analysis relative to control; parameters: scale not given: the % may be the effect or the level left
[27] = molecular target: Mitogen-activated protein kinase kinase kinase kinase 2 (Homo sapiens) (UniProt Q12851); assay: Inhibition of DNA-tagged human MAP4K2 assessed as percent of control at 50000 nM by qPCR analysis relative to control; parameters: scale not given: the % may be the effect or the level left
[28] = molecular target: Homeodomain-interacting protein kinase 1 (Homo sapiens) (UniProt Q86Z02); assay: Inhibition of DNA-tagged human HIPK1 assessed as percent of control at 50000 nM by qPCR analysis relative to control; parameters: scale not given: the % may be the effect or the level left
[29] = molecular target: Death-associated protein kinase 1 (Homo sapiens) (UniProt P53355); assay: Inhibition of DNA-tagged human DAPK1 assessed as percent of control at 50000 nM by qPCR analysis relative to control; parameters: scale not given: the % may be the effect or the level left

CN1C(=O)/C(=C2/C(=O)Nc3ccccc32)c2ccccc21
Activity [1]: 100% | Activity [2]: 100% | Activity (OCI-AML-3): Active | Activity [3]: 95% | Activity [4]: 98% | Activity [5]: 94% | Activity [6]: 94% | Activity [7]: 100% | Activity [8]: 94% | Activity [9]: 97% | Activity [10]: 100% | Activity [11]: 84% | Activity [12]: 86% | Activity [13]: 100% | Activity [14]: 88% | Activity [15]: 97% | Activity [16]: 81% | Activity [17]: 88% | Activity [18]: 88% | Activity [19]: 74% | Activity [20]: 81% | Activity [21]: 94% | Activity [22]: 100% | Activity [23]: 91% | Activity [24]: 100% | Activity [25]: 100% | Activity [26]: 100% | Activity [27]: 92% | Activity [28]: 83% | Activity [29]: 86%
